Experimental data from patent US9889122B2, “Positive allosteric modulators of nicotinic acetylcholine receptor” (H. Lundbeck A/S, priority 2011, dated 2018).

Assays:
[1] = target: T1, human α7 receptor (Homo sapiens, UniProt P36544); assay: α7 NNR flux assay (FDSS Ca assay, Calcium-4 dye, positive allosteric modulation of acetylcholine response); assay type: cell-based; conditions: human α7 receptor stably expressed in rat GH4C1 cell line; acetylcholine 20 μM (~EC100); % modulation relative to reference PNU-120596 set to 100%
T1 construct: host or cells: rat GH4C1 cell line
T1 sequence (P36544 23-502): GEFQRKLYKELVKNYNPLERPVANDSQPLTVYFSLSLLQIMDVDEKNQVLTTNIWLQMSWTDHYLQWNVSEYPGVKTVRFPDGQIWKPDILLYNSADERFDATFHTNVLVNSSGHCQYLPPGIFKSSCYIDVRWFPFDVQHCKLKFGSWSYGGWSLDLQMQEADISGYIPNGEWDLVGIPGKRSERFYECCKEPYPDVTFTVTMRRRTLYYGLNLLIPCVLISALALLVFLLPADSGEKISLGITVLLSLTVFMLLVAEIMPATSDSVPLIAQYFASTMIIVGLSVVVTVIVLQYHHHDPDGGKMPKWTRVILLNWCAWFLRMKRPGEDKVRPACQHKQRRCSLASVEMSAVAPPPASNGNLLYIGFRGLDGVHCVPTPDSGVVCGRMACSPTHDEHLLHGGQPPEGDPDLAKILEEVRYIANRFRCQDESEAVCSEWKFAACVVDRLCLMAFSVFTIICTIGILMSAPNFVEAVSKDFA
Experimental: The nicotinic acetylcholine receptor α7 is a calcium-permeable ion channel, whose activity can be measured by over expression in mammalian cells or oocytes in this version of the assay, the human α7 receptor is stably expressed in the rat GH4C1 cell line. The assay was used to identify positive allosteric modulators (PAMs) of the α7 receptor. Activation of the channel was measured by loading cells with the calcium-sensitive fluorescent dye Calcium-4 (Assay kit from Molecular Devices), and then measuring real-time changes in fluorescence upon treatment with test compounds.
The cell line ChanClone GH4C1-nAChRalpha7 from Genionics was seeded from frozen stock in 384-well plates in culture media 2-3 days before experiment to form an approximately 80% confluent layer on the day of experiment.
Two or three days before the experiment the cells were seeded in 384 well plates from Greiner bio-one (781946, CELLCOAT, Poly-D-Lysine, black, μClear).
The cells were seeded in 384 well plates with 30 μL/well (30000 cells/well) while stirring the cell suspension or otherwise preventing the cells from precipitating.
The loading buffer was 5% v/v Calcium-4 Kit and 2.5 mM Probenecid in assay buffer.
Culture media were removed from the cell plates and 20 μL loading buffer was added in each well. The cell plates were placed in trays and incubated 90 minutes in the incubator (37° C.). Thereafter the plates were incubated 30 minutes at room temperature, still protected from light.
The assay buffer was HBSS with 20 mM HEPES, pH 7.4 and 3 mM CaCl2.
200 nL 10 mM compound solution in DMSO was diluted in 50 μL assay buffer. The final test concentrations in the cell plates were 20-10-5-2.5-1:25-0.625-0.312-0.156-0.078-0.039 μM. Assay buffer and 3 μM PNU-120596 were used for control.
The agonist acetylcholine was added to a final concentration of 20 μM (˜EC100).
In the FDSS7000 the Ex480-Em540 was measured with 1 second intervals. The baseline was made of 5 frames before addition of test compounds, and 95 frames more were made before addition of acetylcholine. The measurement stopped 30 frames after the 2nd addition. Raw data for each well were collected as “the maximum fluorescence count” in the interval 100-131 seconds and as “the average fluorescence count” in the interval 96-100 seconds. The positive allosteric modulation in the 2nd addition was the enhancement of agonist response with test compound compared to agonist alone.
Results were calculated as % modulation of test compound compared to the reference PNU-120596 set to 100%.

EC50 [1] | melting point | Compound
2400 nM | 151 to 153 °C | C[C@H](NC(=O)[C@H]1C[C@@H]1c1ccccc1)c1ccc(OC2COC2)nc1 [Compound 19, (1S,2S)-2-Phenyl-cyclopropanecarboxylic acid {(S)-1-[6-(oxetan-3-yloxy)-pyridin-3-yl]-ethyl}-amide]
2000 nM | 163 to 165 °C | C[C@H](NC(=O)[C@H]1C[C@@H]1c1ccccc1)c1ccc(OCC#N)nc1 [Compound 20, (1S,2S)-2-Phenyl-cyclopropane carboxylic acid [(S)-1-(6-cyanomethoxy-pyridin-3-yl)-ethyl]-amide]
700 nM |  | [2H]C([2H])([2H])C([2H])([2H])Oc1ccc([C@H](CO)NC(=O)[C@H]2C[C@@H]2c2ccc(F)cc2)cn1 [Compound 34, (1S,2S)-2-(4-Fluoro-phenyl)-cyclopropanecarboxylic acid [(R)-1-(6-(1,1,2,2,2-d5)-ethoxy-pyridin-3-yl)-2-hydroxy-ethyl]-amide]
710 nM |  | [2H]C([2H])([2H])COc1ccc([C@H](CO)NC(=O)[C@H]2C[C@@H]2c2ccc(F)cc2)cn1 [Compound 35, (1S,2S)-2-(4-Fluoro-phenyl)-cyclopropanecarboxylic acid [(R)-1-(6-(2,2,2-d3)-ethoxy-pyridin-3-yl)-2-hydroxy-ethyl]-amide]
1600 nM |  | [2H]C([2H])(C)Oc1ccc([C@H](CO)NC(=O)[C@H]2C[C@@H]2c2ccccc2)cn1 [Compound 36, (1S,2S)-2-Phenyl-cyclopropanecarboxylic acid [(R)-1-(6-(1,1-d2)-ethoxy-pyridin-3-yl)-2-hydroxy-ethyl]-amide]
700 nM |  | [2H]C([2H])(C)Oc1ccc([C@H](CO)NC(=O)[C@H]2C[C@@H]2c2ccc(F)cc2)cn1 [Compound 37, (1S,2S)-2-(4-Fluoro-phenyl)-cyclopropanecarboxylic acid [(R)-1-(6-(1,1-d2)-ethoxy-pyridin-3-yl)-2-hydroxy-ethyl]-amide]
970 nM |  | [2H]C([2H])([2H])C([2H])([2H])Oc1ccc([C@H](CO)NC(=O)[C@H]2C[C@@H]2c2ccccc2)cn1 [Compound 38, (1S,2S)-2-Phenyl-cyclopropane carboxylic acid [(R)-1-(6-(1,1,2,2-d5)-ethoxy-pyridin-3-yl)-2-hydroxy-ethyl]-amide]
720 nM |  | [2H]C([2H])([2H])COc1ccc([C@H](CO)NC(=O)[C@H]2C[C@@H]2c2cccc(F)c2)cn1 [Compound 39, (1S,2S)-2-(3-Fluoro-phenyl)-cyclopropanecarboxylic acid [(R)-1-(6-(2,2,2-d3)-ethoxy-pyridin-3-yl)-2-hydroxy-ethyl]-amide]
2900 nM |  | O=C(N[C@@H](CO)c1ccc(O[C@@H]2CCOC2)nc1)[C@H]1C[C@@H]1c1ccccc1 [Compound 43, (1S,2S)-2-Phenyl-cyclopropanecarboxylic acid ((R)-2-hydroxy-1-{6-[(R)-(tetrahydro-furan-3-yl)oxy]-pyridin-3-yl}-ethyl)-amide]
4600 nM |  | O=C(N[C@@H](CO)c1ccc(O[C@H]2CCOC2)nc1)[C@H]1C[C@@H]1c1ccccc1 [Compound 44, (1S,2S)—N-[(1R)-2-hydroxy-1-[6-[(3S)-tetrahydrofuran-3-yl]oxy-3-pyridyl]ethyl]-2-phenyl-cyclopropanecarboxamide]
460 nM |  | CCOc1ccc([C@H](COC)NC(=O)[C@H]2C[C@@H]2c2ccccc2)cn1 [Compound 46, (1S,2S)-2-Phenyl-cyclopropanecarboxylic acid [(R)-1-(6-ethoxy-pyridin-3-yl)-2-methoxy-ethyl]-amide]
1000 nM |  | COC[C@H](NC(=O)[C@H]1C[C@@H]1c1ccccc1)c1ccc(O[C@@H]2CCOC2)nc1 [Compound 47, (1S,2S)—N-[(1R)-2-methoxy-1-[6-[(3R)-tetrahydrofuran-3-yl]oxy-3-pyridyl]-ethyl]-2-phenyl-cyclopropanecarboxamide]
1700 nM |  | COC[C@H](NC(=O)[C@H]1C[C@@H]1c1ccccc1)c1ccc(O[C@H]2CCOC2)nc1 [Compound 48, (1S,2S)—N-[(1R)-2-methoxy-1-[6-[(3S)-tetrahydrofuran-3-yl]oxy-3-pyridyl]ethyl]-2-phenyl-cyclopropanecarboxamide]
1200 nM |  | COC[C@H](NC(=O)[C@H]1C[C@@H]1c1ccccc1)c1ccc(OC2CCOCC2)nc1 [Compound 49, (1S,2S)-2-Phenyl-cyclopropanecarboxylic acid {(R)-2-methoxy-1-[6-(tetrahydro-pyran-4-yloxy)-pyridin-3-yl]-ethyl}-amide]
2000 nM |  | CCOc1ccc([C@H](CO)NC(=O)[C@H]2C[C@@H]2c2ccccc2)nc1 [Compound 52, (1S,2S)-2-Phenyl-cyclopropanecarboxylic acid [(R)-1-(5-ethoxy-pyridin-2-yl)-2-hydroxy-ethyl]-amide]

Compound | EC50 [1] | melting point
O=C(N[C@@H](CO)c1ccc(OC2CCC2)nc1)[C@H]1C[C@@H]1c1ccccc1 [Compound 40, (1S,2S)-2-Phenyl-cyclopropanecarboxylic acid [(R)-1-(6-cyclobutoxy-pyridin-3-yl)-2-hydroxy-ethyl]-amide] | 890 nM | 
O=C(N[C@@H](CO)c1ccc(OC2CCC2)nc1)[C@H]1C[C@@H]1c1cccc(F)c1 [Compound 41, (1S,2S)-2-(3-Fluoro-phenyl)-cyclopropanecarboxylic acid [(R)-1-(6-cyclobutoxy-pyridin-3-yl)-2-hydroxy-ethyl]-amide] | 1600 nM | 
O=C(N[C@@H](CO)c1ccc(OC2CCC2)nc1)[C@H]1C[C@@H]1c1ccc(F)cc1 [Compound 42, (1S,2S)-2-(4-Fluoro-phenyl)-cyclopropanecarboxylic acid [(R)-1-(6-cyclobutoxy-pyridin-3-yl)-2-hydroxy-ethyl]-amide] | 790 nM | 
